According to publication PMC12655252, “Synthesis of 1H-Pyrrolo[3,2-g]isoquinoline Derivatives as Ligands Targeting Haspin Kinase” (Molecules, 2025):

System: endogenous Haspin kinase (phosphorylation of Histone H3 on Thr3) in U2OS cells
Experiment: H3T3ph immunofluorescence assay in U2OS cells (cellular endogenous Haspin activity)
Format: cell-based
Conditions: 1 μM, 16 h, positive control
Description: In order to assess the ability of our most interesting compounds to inhibit cellular endogenous Haspin kinase, we evaluated their effects on the phosphorylation of Histone H3 on Thr3, a bona fide Haspin substrate (Figure 4). We treated osteosarcoma U2OS cells with 2.5 μM of selected compounds for 16 h before quantifying H3T3 phosphorylation by immunofluorescence on early mitotic cells (Figure 4A,B). […] This discrepency could be explained by the inability of this compound to cross the plasma membrane or by reduced stability in a cellular environment.
Ethical approval for this study was obtained (9 July 2025) from DGRI-LabOGM (APPROVAL NUMBER: L1-2373). U2OS cells (purchased from ATCC, Manassas, VA, USA, reference HTB-96) were grown in DMEM medium (Dulbecco’s Modified Eagle Medium, High glucose; GlutaMAX, Life Technologies, Carlsbad, CA, USA) supplemented with 10% fetal bovine serum (Gibco, Grand Island, NY, USA) in a 5% CO2 humidified atmosphere. Cells grown on coverslips were treated for 16 h with each compound or 0.025% DMSO, then fixed with 4% paraformaldehyde in PBS, permeabilized by 0.15% Triton-X100 for 2 min, and blocked for 12 min in 4% BSA in PBS. Immunofluorescence assay was performed using standard protocols with a rabbit anti-phospho-Thr3 Histone H3 and a mouse anti-a-Tubulin (B-5-1-2) obtained from Merck Millipore, Burlington, MA, USA (1/2000 dilution). Coverslips were mounted with Vectashield containing DAPI (Vector Laboratories, Newark, CA, USA). Images were acquired with a Coolsnap HQ2 CCD camera (Photometrics, Tucson, AZ, USA) on a Zeiss Axio microscope (Carl Zeiss, Oberkochen, Germany) using a 63x NA 1.46 objective. Image acquisition and processing were performed using Zen Blue (Carl Zeiss). The H3T3ph signal on chromosomes was normalized against the DAPI signal and analyzed using ImageJ software (NIH, Version 1.54p). Graphs were produced and statistical analysis was performed using GraphPad Prism 10. p-values were determined by t-test; n.s., not significant; **** p ≤ 0.0001.
Figure 4 Evaluation of selected compounds on cellular endogenous Haspin activity. (A) U2OS cells were treated with 2.5 μM of each compound or 1 μM of CHR6494 (CHR) or DMSO for 16 h. Immunofluorescence assay was performed with anti-pH3T3 antibody (green) and anti-a-Tubulin (red); DNA was labelled with DAPI (blue). Representative images of early mitotic cells for each condition are presented. Scale bar: 5 μm. (B) Scatter plot representing H3T3ph/DAPI signal ratio indicative of Haspin activity; n > 17 mitotic cells per condition. n.s., not significant; **** p ≤ 0.0001.

Compound: CCCNc1ccc2ncc(-c3ccc4[nH]ncc4c3)n2n1 [CHR-6494, reference compound]
- Effect on endogenous Haspin activity (H3T3 phosphorylation): abolished Haspin activity
